2 molecules from patent publication US20260325655A1, “DECREASING THE INTRINSICALLY DISORDERED PROTEIN ALPHA-SYNUCLEIN’S LEVELS BY TARGETING ITS STRUCTURED MRNA WITH A RIBONUCLEASE TARGETING CHIMERA” (University of Florida Research Foundation, Incorporated, priority 2023, published 2026) can be followed below.

One assay has as its system SNCA mRNA. Nature of the assay: SNCA mRNA in iPSC-induced dopaminergic neurons. Type of assay: cell-based, human. How it is done: RNA extraction and reverse transcription-quantitative polymerase chain reaction (RT-qPCR). Total RNA was extracted from cells using a Quick-RNA MiniPrep Kit (Zymo Research) per the manufacturer's protocol including DNase treatment. For each sample, 200 ng of RNA was reverse transcribed into cDNA by using a qScript cDNA Synthesis Kit (QuantaBio) according to the manufacturer's instructions. To assess the relative mRNA levels, RT-qPCR was performed in triplicate using SYBR Green PCR mater mix (Applied Biosystems) with a Quant Studio 5 Real-Time PCR system. The relative levels of mRNA were calculated by using the ΔΔCt method as previously described.^8
Dopamine neuron induction. For dopamine neuronal induction,^15,16 the dual-SMAD inhibition method^17 was used for floor plate (FP)-based midbrain dopamine (DA) neuron induction with modifications. Prior to differentiation, Matrigel matrix (BD) was thawed at 4° C. overnight or on ice until it is dissolved. Matrigel coated 6-well plates were prepared according to manufacturer's instructions and incubated at 37° C. for at least 1 h before use. iPSCs were dissociated with Accutase (STEMCELL Technologies) and plated (3.5×10^5-4×10^5 cells per cm^2) into a new Matrigel coated plate and grown in mTeSR medium (STEMCELL Technologies) with StemBeads FGF2 (StemCultures) and ROCK inhibitor Y27632 (5 μM, Tocris). […]

A further assay deals with SH-SY5Y cells. Nature of the assay: proteome-wide analysis in SH-SY5Y cells. Type of assay: cell-based, human. The settings on record: for number of proteins downregulated / number of proteins upregulated / protein expression of seven genes enriched by Syn-CLIP (global proteomics) / number of proteins affected / percent of proteins affected: 2 μM; for number of proteins affected: of 3,436 (Syn-RiboTAC) or 2,813 (Synucleozid-2.0) proteins detected; for percent of proteins affected: of proteins detected. How it is done: Treatment of SH-SY5Y cells with Syn-RiboTAC for proteome-wide studies. SH-SY5Y cells were seeded in 6-well plates (~60% confluency) and treated with vehicle (0.1% (v/v) DMSO) or Syn-RiboTAC as described above. After 48 h, the cells were gently washed twice with 1× DPBS, harvested by scraping, and resuspended in 1× DPBS. They were then lysed by sonication. Protein concentrations were determined by using BCA Protein Assay Kit (Pierce Biotechnology). Reduction of […]-synuclein protein levels by Syn-RiboTAC were confirmed by Western blotting as described above. Protein samples were then denatured in 50 mM NH4HCO3, pH 8, containing 6 M urea and then reduced with 10 mM TCEP (tris(2-carboxyethyl)phosphine hydrochloride) for 30 min. The proteins were then alkylated with 25 mM iodoacetamide for 30 min in dark. Samples were diluted to 2 M urea containing 50 mM NH4HCO3, pH 8, and digested with trypsin (Thermo Scientific, 1.5 μL of 0.5 μg/μL) containing 1 mM CaCl2) (100× stock in water) at 37° C. for 12 h. Samples were acidified by adding acetic acid to a final concentration of 5% (v/v), desalted by using a self-packed C18 spin column, and dried. Samples obtained were analyzed by LC-MS/MS(as described below), and the MS data were processed with MaxQuant (as described below).
LC-MS/MS analysis and MaxQuant analysis. Peptides obtained above were resuspended in water containing 0.1% (v/v) formic acid and analyzed by using EASY-nLC 1200 nano-UHPLC coupled to Q Exactive HF-X Quadrupole-Orbitrap mass spectrometer (Thermo Scientific). Parameters for the chromatography column and elution methods were the same as previously described.^4 MS data were analyzed by using MaxQuant 14 (V1.6.1.0) and then searched against the human proteome (Uniprot) and a common list of contaminants (included in MaxQuant). The false discovery rate (FDR) for proteins, peptides and sites identification was set at 1%. Parameters were the same as described previously.^4

Turning to `CCOC(=O)C1=C(Nc2ccccc2)S/C(=C\c2ccc(OCCOCCOCCOCCNC(=O)CCCOc3ccc(-n4c(SCC(=O)Nc5ccc6cn[nH]c6c5)nnc4-c4ccncc4)cc3)c(O)c2)C1=O` [Syn-RiboTAC], the “decrease of SNCA transcript levels in dopaminergic neurons” value in the assay on SNCA mRNA was ~ 50%. Further, in the assay with SH-SY5Y cells, the “enhancement in selectivity on the proteome vs Synucleozid 1.0” value is ~ 16 -fold, the “number of proteins downregulated” value was determined as 114, the “number of proteins upregulated” value worked out at 80 and the “protein expression of seven genes enriched by Syn-CLIP (global proteomics)” value is recorded as “not significantly altered”. In the assay on SH-SY5Y cells, the “number of proteins affected” value was 194 and the “percent of proteins affected” value is listed as 0.56%. Moreover, in the assay with SH-SY5Y cells (of 194 changed proteins), the “number of changed proteins that also showed the corresponding change at the transcript level” value stood at 86 and the “percent of changed proteins with corresponding transcript change” value worked out at 44%.

For the molecule `O=C(CSc1nnc(-c2ccncc2)n1-c1ccc(Br)cc1)Nc1ccc2cn[nH]c2c1` [Synucleozid-2.0], the “effect on SNCA mRNA levels in dopaminergic neurons (in words)” value with SNCA mRNA is “no effect”. Besides, in the assay on SH-SY5Y cells, the “number of proteins downregulated” value is recorded as 55, the “number of proteins upregulated” value is 95, the “protein expression of seven genes enriched by Syn-CLIP (global proteomics)” value is listed as “not significantly altered” and the “number of proteins affected” value was 150. Moreover, the “percent of proteins affected” value in the assay on SH-SY5Y cells worked out at 0.53%.
